This is an account of results in patent US9340507B2, “Substituted 4-pyridones and their use as inhibitors of neutrophil elastase activity” (Boehringer Ingelheim International GmbH, priority 2012, dated 2016).

The test deals with Human neutrophil elastase (Homo sapiens (Human), UniProt P08246). Kind of test: Human Neutrophil Elastase Assay. To be noted: substrate MeOSuc-Ala-Ala-Pro-Val-AMC 250 μM, pH 7.5, fluorescence. The class given is biochemical. How it is done: Human Neutrophil Elastase Assay
Sequence of Human neutrophil elastase (P08246 30-267): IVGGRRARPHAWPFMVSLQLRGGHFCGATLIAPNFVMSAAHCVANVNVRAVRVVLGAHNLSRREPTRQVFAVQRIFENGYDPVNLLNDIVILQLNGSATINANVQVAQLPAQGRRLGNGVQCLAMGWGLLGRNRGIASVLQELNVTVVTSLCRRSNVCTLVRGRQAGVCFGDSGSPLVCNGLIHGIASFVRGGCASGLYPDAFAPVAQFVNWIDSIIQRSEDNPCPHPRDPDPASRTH
All other materials were of the highest grade commercially available.
The following buffers were used: Compound buffer: 100 mM Tris, 500 mM NaCl, adjusted to pH 7.5; Assay buffer: 100 mM Tris, 500 mM NaCl, adjusted to pH 7.5, containing 0.01% BSA.
Assay conditions: Test compounds were prediluted in DMSO and subsequently in compound buffer (5% DMSO final). […] After inactivation of the enzyme, fluorescence intensities were measured at 380 nm excitation and 460 nm emission wavelengths.
Each plate contains wells with a high value control (DMSO+enzyme+substrate) and wells with a low value control (DMSO+inactivated enzyme+substrate). IC50 values were estimated using a sigmoidal concentration response curve with variable slope. Means of low values were taken as 0%, means of high values as 100%. IC50 values of selected compound in the Neutrophil Elastase assay: […]
One may read the IC50 as the concentration at which inhibition is half-maximal. Consider `Cc1c(-c2cccc(C(F)(F)F)c2)c(=O)c(C(=O)NCc2ccc([S+](C)[O-])cc2)cn1C(C)C` (racemic) [Example 27.1, 1-Isopropyl-6-methyl-4-oxo-5-(3-trifluoromethyl-phenyl)-1,4-dihydro-pyridine-3-carboxylic acid 4-methanesulfinyl-benzylamide], for which the IC50 worked out at 9 nM. `Cc1c(-c2cccc(C(F)(F)F)c2)c(=O)c(C(=O)NCc2ccc([S+](C)[O-])cc2)cn1C(C)C` (single isomer, unassigned) [Example 27.1B] displayed an IC50 of 30 nM. The value for `CCn1cc(C(=O)NCc2ccc(S(C)(=O)=O)cc2)c(=O)c(-c2cccc(C(F)(F)F)c2)c1C` [Example 1.1, 1-Ethyl-6-methyl-4-oxo-5-(3-trifluoromethyl-phenyl)-1,4-dihydro-pyridine-3-carboxylic acid 4-methanesulfonyl-benzylamide] was 33 nM.

In the case of `Cc1c(-c2cccc(C(F)(F)F)c2)c(=O)c(C(=O)NCc2ccc(S(C)(=O)=O)cc2)cn1C(C)C` [Example 1.2, 1-isopropyl-6-methyl-4-oxo-5-(3-trifluoromethyl-phenyl)-1,4-dihydro-pyridine-3-carboxylic acid 4-methanesulfonyl-benzylamide], half-maximal inhibition (IC50) was put at 12 nM. The value for `CCCn1cc(C(=O)NCc2ccc(S(C)(=O)=O)cc2)c(=O)c(-c2cccc(C(F)(F)F)c2)c1C` [Example 1.3] was 28 nM; that for `Cc1c(-c2cccc(C(F)(F)F)c2)c(=O)c(C(=O)NCc2ccc(S(C)(=O)=O)cc2)cn1CC1CC1(F)F` (centres unmarked) [Example 1.7] was 37 nM.

`CCn1cc(C(=O)NCc2ccc(S(C)(=O)=O)cn2)c(=O)c(-c2cccc(C(F)(F)F)c2)c1C` [Example 2.1] returned an IC50 of 57 nM.

In turn, `CCCn1cc(C(=O)NCc2ccc(S(C)(=O)=O)cn2)c(=O)c(-c2cccc(C(F)(F)F)c2)c1C` [Example 2.2] yielded an IC50 of 20 nM. The value for `Cc1c(-c2cccc(C(F)(F)F)c2)c(=O)c(C(=O)NCc2ccc(S(C)(=O)=O)cn2)cn1CC(C)C` [Example 2.3] was 30 nM. The compound `Cc1c(-c2cccc(C(F)(F)F)c2)c(=O)c(C(=O)NCc2ccc(S(C)(=O)=O)cn2)cn1CC1CCOC1` (centres unmarked) [Example 2.4] gave an IC50 of 73 nM. The value for `Cc1nnc(CNC(=O)c2cn(C(C)C)c(C)c(-c3cccc(C(F)(F)F)c3)c2=O)o1` [Example 3.1, 1-Isopropyl-6-methyl-4-oxo-5-(3-trifluoromethyl-phenyl)-1,4-dihydro-pyridine-3-carboxylic acid (5-methyl-[1,3,4]oxadiazol-2-ylmethyl)-amide] was 38 nM. The value for `Cc1c(-c2cccc(C(F)(F)F)c2)c(=O)c(C(=O)NCc2ccncc2)cn1C(C)C` [Example 3.2] was 97 nM; that for `Cc1c(-c2cccc(C(F)(F)F)c2)c(=O)c(C(=O)NCc2cccnn2)cn1C(C)C` [Example 3.3] was 90 nM; that for `Cc1c(-c2cccc(C(F)(F)F)c2)c(=O)c(C(=O)NCc2cnn(C)c2)cn1C(C)C` [Example 3.4] was 62 nM. Turning to `Cc1c(-c2cccc(C(F)(F)F)c2)c(=O)c(C(=O)NCc2ccc(C#N)cc2)cn1C(C)C` [Example 3.5], the midpoint of inhibition, the IC50, lay at 64 nM.

`Cc1c(-c2cccc(C(F)(F)F)c2)c(=O)c(C(=O)NCc2cccc(S(C)(=O)=O)c2)cn1C(C)C` [Example 3.6] had an IC50 of 89 nM.

Compound `Cc1c(-c2cccc(C(F)(F)F)c2)c(=O)c(C(=O)NCc2ccc(S(N)(=O)=O)cc2)cn1C(C)C` [Example 3.7] yielded an IC50 of 40 nM. With `Cc1c(-c2cccc(C(F)(F)F)c2)c(=O)c(C(=O)NCc2ccc(N3CCNC3=O)cc2)cn1C(C)C` [Example 3.8], the IC50 amounted to 65 nM. With `Cc1c(-c2cccc(C(F)(F)F)c2)c(=O)c(C(=O)NCc2ccc(CN3CCCC3=O)cc2)cn1C(C)C` [Example 3.9] the figure was 20 nM; with `Cc1c(-c2cccc(C(F)F)c2)c(=O)c(C(=O)NCc2cccnn2)cn1C(C)C` [Example 4.1], 98 nM. In turn, `Cc1c(-c2cccc(C(F)F)c2)c(=O)c(C(=O)NCc2cnn(C)c2)cn1C(C)C` [Example 4.2] gave an IC50 of 60 nM.

On to `Cc1nnc(CNC(=O)c2cn(C(C)C)c(C)c(-c3cccc(C(F)F)c3)c2=O)o1` [Example 4.3], for which the IC50 came to 27 nM. Consider `Cc1c(-c2cccc(C(F)F)c2)c(=O)c(C(=O)NCc2cccc(=O)[nH]2)cn1C(C)C` [Example 4.4], for which 72 nM corresponded to half-maximal inhibition (IC50). For the compound `Cc1c(-c2cccc(C(F)F)c2)c(=O)c(C(=O)NCc2ccc(C#N)cc2)cn1C(C)C` [Example 4.5], the IC50 is 51 nM.

Take `Cc1c(-c2cccc(C(F)F)c2)c(=O)c(C(=O)NCc2cn3ccccc3n2)cn1C(C)C` [Example 4.6]: the IC50 came to 28 nM. The value for `Cc1c(-c2cccc(C(F)F)c2)c(=O)c(C(=O)NCc2ccc3c(cnn3C)c2)cn1C(C)C` [Example 4.7] was 45 nM; that for `Cc1c(-c2cccc(C(F)F)c2)c(=O)c(C(=O)NCc2ccc([S+](C)[O-])cc2)cn1C(C)C` (centres unmarked) [Example 4.8] was 10 nM. With `Cc1c(-c2cccc(C(F)F)c2)c(=O)c(C(=O)NCc2cccc(S(C)(=O)=O)c2)cn1C(C)C` [Example 4.9] the figure was 63 nM. Consider `Cc1c(-c2cccc(C(F)F)c2)c(=O)c(C(=O)NCc2ccc(S(N)(=O)=O)cc2)cn1C(C)C` [Example 4.10], for which the midpoint of inhibition, the IC50, lay at 42 nM. With `Cc1c(-c2cccc(C(F)F)c2)c(=O)c(C(=O)NCc2ccc(Cn3ccnc3)cc2)cn1C(C)C` [Example 4.11] the figure was 18 nM.

Turning to `Cc1c(-c2cccc(C(F)F)c2)c(=O)c(C(=O)NCc2ccc(N3CCNC3=O)cc2)cn1C(C)C` [Example 4.12], the IC50 was determined as 69 nM. The value for `Cc1c(-c2cccc(C(F)F)c2)c(=O)c(C(=O)NCc2ccc(CN3CCCC3=O)cc2)cn1C(C)C` [Example 4.13] was 20 nM; that for `Cc1c(-c2ccnc(C(F)(F)F)c2)c(=O)c(C(=O)NCc2ccc(S(C)(=O)=O)cc2)cn1C(C)C` [Example 5.1, 1-Isopropyl-2-methyl-4-oxo-2′-trifluoromethyl-1,4-dihydro-[3,4]bipyridinyl-5-carboxylic acid 4-methanesulfonyl-benzylamide] was 72 nM; that for `Cc1c(-c2ccc(F)c(C(F)(F)F)c2)c(=O)c(C(=O)NCc2ccc(S(C)(=O)=O)cc2)cn1C(C)C` [Example 5.2] was 19 nM. With `Cc1c(-c2cc(Cl)cc(C(F)(F)F)c2)c(=O)c(C(=O)NCc2ccc(S(C)(=O)=O)cc2)cn1C(C)C` [Example 5.3] the figure was 48 nM; with `Cc1c(-c2ccc(F)c(C(F)F)c2)c(=O)c(C(=O)NCc2ccc(S(C)(=O)=O)cc2)cn1C(C)C` [Example 5.4], 61 nM; with `Cc1c(-c2cncc(C(F)(F)F)c2)c(=O)c(C(=O)NCc2ccc(S(C)(=O)=O)cc2)cn1C(C)C` [Example 5.5], 91 nM. `Cc1c(-c2cccc(C(F)(F)F)c2)c(=O)c(C(=O)NCc2ccc(S(C)(=O)=O)cc2)cn1C1CC1` [Example 6, 1-Cyclopropyl-6-methyl-4-oxo-5-(3-trifluoromethyl-phenyl)-1,4-dihydro-pyridine-3-carboxylic acid 4-methanesulfonyl-benzylamide] showed an IC50 of 30 nM.
